Laboratory results reported in patent US8470381B2, “Spinosyn antifouling compositions, methods of use thereof and articles protected from attachment of biofouling organisms” (Entarco S.A., priority 2008, dated 2013).
“And” between values parts separate entries of the source, which are not always exact repeats. Equal entries are not always repeated. “Also recorded” adds a separate entry of the source.

Experiments:
[1] = tested on: Alcaligenes sp (Al); experiment: Agar diffusion antimicrobial assay against marine bacteria associated with Balanus amphitrite; assay type: cell-based; conditions: 24 hours
Method: (§1) The effect of spinosad as a bacteriostatic compound was tested against four bacterial species using standard agar diffusion techniques, as described by Avelin et al., J. Chem. Ecol., 19(10), 2155-67 (1993). The bacteria used in the test were as follows: Aeromonas sp (Ae); Alcaligenes sp (Al); Flavobacterium sp (F); and Vibrio sp (V);
(§2) The agar diffusion technique follows the original method by Acar (1980). In a sterilized petri dish 1 ml of 12 hour old nutrient broth culture, comprising of 3.7% of marine broth in distilled water, of each marine bacterial species was transferred along with 20 ml of antibiotic agar medium.
(§3) Sterilized Whatman No. 1 paper discs (6.25 mm diameter) were loaded with the test solution (2.4% w/w Tracer in distilled water) at concentrations calculated in pure spinosad ranging from 10^−1 mg/10 μl to 10^−4 mg/10 μl. Control discs were loaded with only the vehicle. After 24 hours of exposure to the test solution, the zone of inhibition, i.e. the area around the disc devoid of marine bacterial growth was measured by determining the distance from the edge of the disc to the edge of the area showing no bacterial growth (mm).

[2] = tested on: Flavobacterium sp (F); experiment: as above; assay type: cell-based; conditions: 24 hours
Method: as §1, §2, §3

[3] = tested on: Aeromonas sp (Ae); experiment: as above; assay type: cell-based; conditions: isolate Ae1, 24 hours
Method: as §1, §2, §3

[4] = tested on: Vibrio sp (V); experiment: as above; assay type: cell-based; conditions: 24 hours
Method: as §1, §2, §3

[5] = tested on: barnacle cyprids (Balanus amphitrite Darwin); experiment: Barnacle cyprid settlement assay and EC50 determination; assay type: in vivo; conditions: for % of set: dishes a, b, c and Total (mean), control mean 78
Text: The barnacle, Balanus amphitrite Darwin, is the most ubiquitous hard fouling organism found in all marine ecosystems, particularly in ports visited by commercial shipping. The methods used in this evaluation have been described in detail in a number of publications (Rittschof D, Clare A S, Gerhart D J, Avelin Mary, Bonavetura J (1991) Barnacle in vitro assays for biologically active substances: toxicity and settlement assays using mass cultured Balanus amphitrite amphitrite Darwin. Biofouling 6:115-122.
The barnacle adults are cultured in the laboratory and allowed to spawn naturally. The larvae are harvested and grown in artificial culture systems until they reach the cyprid stage at which time the larvae become competent to attach to surfaces. Once attached, the cyprids transform into a pinhead barnacle, thus becoming permanently attached to the surface.
The sample solution tested was a 23.2% w/w solution of Tracer in distilled water (equivalent to 10% w/w in pure spinosad or 100 mg spinosad/ml). The sample was stirred prior to making serial dilutions.
The data are summarized in the Tables 2 and 3 below along with the calculations for the EC50. […] Thereafter, there was dose dependent attachment from 10^−5 and at lower concentrations, only reaching control values at […]. The EC50 calculation via probit analysis show an EC50 of 7×10^−8 mg/ml.
Additional notes to the data below: 1. Set means the total number of cyprid larvae that have settled and attached on the surface of the petri dish. 2. Non-Set means the total number of cyprids that remain swimming in the seawater and not settled on the surface. 3. Data are expressed as the percentage of cyprids that settled on the surface. 4. Data are summarized and the mean, standard deviation (SD) and the standard error of the mean (SE) are calculated for samples. 5. Tests were conducted in replicates of three dishes per study group; each dish containing anywhere from 75 to 100 cyprids.

[6] = tested on: Dunaliella tertiolecta; experiment: Inhibition of the growth of the fouling microalgae in flask culture; assay type: cell-based; conditions: 10-^2 to 10^−9 mg spinosad/ml; cells counted each day
Method: A water emulsion containing 23.2% w/w Tracer®=10% spinosad was used at the start of this assay. Dunaliella tertiolecta was maintained in stock cultures in 20 ml test tubes as seed cultures and maintained on seven day transfer cycle. The marine micro-algae were inoculated into 250 ml conical flasks containing 100 ml of filtered, sterilized seawater in F/2-Guillard-1975 growth medium. The initial 10% spinosad emulsion (coded Entarco 8205 10%), was further dissolved in distilled water and added at various concentrations to each algal culture for final concentrations ranging from 10-^2 mg spinosad/ml to 10^−9 mg spinosad/ml. Controls consisted of algal culture without the test solution. Each test group was comprised of 3 flasks.
The typical culture goes through four phases. Lag phase is characterized by little or no multiplication of the cells. Log phase or exponential phase is when there is a rapid increase in the rate of cell division. During the next phase, called stationary phase, the number of living cells remain constant and there is no further growth. […] The growth of the algal cells in each flask was counted each day by haemocytometer. The entire growth and decline of the culture in the presence or absence of spinosad was determined (Targett, 1988 Allelochemistry in marine organisms: Chemical fouling and antifouling strategies).

spinosad
zone of inhibition ([1]; isolate Al1, 10^−1 mg/10 μl (10000 ppm spinosad)): 8 mm | zone of inhibition ([1]; isolate Al1, 10^−2 mg/10 μl (1000 ppm spinosad)): 6 mm | zone of inhibition ([1]; isolate Al1, 10^−3 mg/10 μl (100 ppm spinosad)): 6 mm | zone of inhibition ([1]; isolate Al1, 10^−4 mg/10 μl (10 ppm spinosad)): 6 mm | zone of inhibition ([1]; isolate Al2, 10^−1 mg/10 μl (10000 ppm spinosad)): 7 mm | zone of inhibition ([1]; isolate Al2, 10^−2 mg/10 μl (1000 ppm spinosad)): 6.5 mm | zone of inhibition ([1]; isolate Al2, 10^−3 mg/10 μl (100 ppm spinosad)): 5.5 mm | zone of inhibition ([1]; isolate Al2, 10^−4 mg/10 μl (10 ppm spinosad)): 5.5 mm | zone of inhibition ([2]; isolate F1, 10^−1 mg/10 μl (10000 ppm spinosad)): 7.5 mm | zone of inhibition ([2]; isolate F1, 10^−2 mg/10 μl (1000 ppm spinosad)): 6 mm | zone of inhibition ([2]; isolate F1, 10^−3 mg/10 μl (100 ppm spinosad)): 6 mm | zone of inhibition ([2]; isolate F1, 10^−4 mg/10 μl (10 ppm spinosad)): 6 mm | zone of inhibition ([2]; isolate F2, 10^−1 mg/10 μl (10000 ppm spinosad)): 7.5 mm | zone of inhibition ([2]; isolate F2, 10^−2 mg/10 μl (1000 ppm spinosad)): 6 mm | zone of inhibition ([2]; isolate F2, 10^−3 mg/10 μl (100 ppm spinosad)): 6 mm | zone of inhibition ([2]; isolate F2, 10^−4 mg/10 μl (10 ppm spinosad)): 6 mm | zone of inhibition ([3]; 10^−1 mg/10 μl (10000 ppm spinosad)): 7.5 mm | zone of inhibition ([3]; 10^−2 mg/10 μl (1000 ppm spinosad)): 7 mm | zone of inhibition ([3]; 10^−3 mg/10 μl (100 ppm spinosad)): 7 mm | zone of inhibition ([3]; 10^−4 mg/10 μl (10 ppm spinosad)): 5.5 mm | zone of inhibition ([4]; isolate V1, 10^−1 mg/10 μl (10000 ppm spinosad)): 8 mm | zone of inhibition ([4]; isolate V1, 10^−2 mg/10 μl (1000 ppm spinosad)): 5.5 mm | zone of inhibition ([4]; isolate V1, 10^−3 mg/10 μl (100 ppm spinosad)): 5.5 mm | zone of inhibition ([4]; isolate V1, 10^−4 mg/10 μl (10 ppm spinosad)): 5.5 mm | zone of inhibition ([4]; isolate V2, 10^−1 mg/10 μl (10000 ppm spinosad)): 8 mm | zone of inhibition ([4]; isolate V2, 10^−2 mg/10 μl (1000 ppm spinosad)): 7 mm | zone of inhibition ([4]; isolate V2, 10^−3 mg/10 μl (100 ppm spinosad)): 6 mm | zone of inhibition ([4]; isolate V2, 10^−4 mg/10 μl (10 ppm spinosad)): 6 mm | % of set ([5]; 0.1 mg spinosad/ml): 0% | % of set ([5]; 10−^2 mg spinosad/ml): 0% | % of set ([5]; 10−^3 mg spinosad/ml): 0% | % of set ([5]; 10−^4 mg spinosad/ml): 0% | % of set ([5]; 10−^5 mg spinosad/ml): 7% and 9% and 12% | % of set ([5]; 10−^7 mg spinosad/ml): 31% and 34% and 42% | % of set ([5]; 10−^8 mg spinosad/ml): 52% and 57% and 50% | % of set ([5]; 10−^9 mg spinosad/ml): 63% and 61% and 70% | % of set ([5]; 10−^10 mg spinosad/ml): 77% and 78% and 71% | % of set ([5]; 10−^11 mg spinosad/ml): 77% and 79% and 72% | mortality of cyprids ([5]; all concentrations tested): absence of any mortality; also recorded: no mortality seen at all concentrations tested | cyprid settlement ([5]; from 10^−1 to 10^−4 mg/ml): no cyprid settlement | mortality of cyprids ([5]; highest concentration used (0.1 mg spinosad/ml)): no mortality was observed | EC50 on the settlement of barnacle cyprids ([5]; probit analysis): 0.07 ng/mL | growth of Dunaliella tertiolecta (FIG. 1) [6]: significant microalgae inhibitory properties which are dose dependent
